Tests used:
[1] = tested on: New Zealand White rabbits; test: Fatty streak in the main artery of cholesterol-fed rabbits; assay type: in vivo, rabbit
Procedure: (§1) 22 three-month-old New Zealand White rabbits(Yeonam Horticulture and Animal Husbandry College, Korea) each weighing about 2.0 to 2.3 kg were bred under a condition of temperature 20±2° C., relative humidity 55±10%, and photoperiod 12L/12D. The rabbits were divided two groups of 6 rabbits and a group of 10 rabbits, and the rats of three groups were fed with three different diets, i.e., RC4 diet(Oriental Yeast Co., Japan) containing 1% cholesterol(Control group); 1% cholesterol plus 1 mg/kg Lovastatin® (Merck, U.S.A.)(Comparative group); and 1% cholesterol plus 0.1% NG5006, respectively. RC4 diet comprises 7.6% moisture, 22.8% crude protein, 2.8% crude fat, 8.8% crude ash, 14.4% crude cellulose and 43.6% soluble nitrogen-free substances. The rabbits were bred for 8 weeks while being allowed free access to the diets and water.
The rabbits bred in Step 1 were sacrificed and their chest were incised. The main artery was cut out therefrom in a length of about 5 cm downward from the site 1 cm above the aortic valve and the fat surrounding the main artery was removed. The main artery was incised in the middle along the longitudinal axis and fixed in 10% neutral buffered formalin for 24 hours, and then, pinned to a dish. The moist artery was photographed and, then, staining of fatty streak was carried out in accordance with the method of Esper, E., et al. (J. Lab. Clin. Med., 121, 103-110(1993)) as follows.
A part of the incised main artery was washed three times by 2 min. with anhydrous propylene glycol and stained for 30 min. with a saturated solution of Oil Red O(ORO, Sigma Co.) dissolved in propylene glycol. Thereafter, the artery was washed twice by 3 min. with 85% propylene glycol to remove remaining staining solution and, then washed with physical saline. The artery was photographed and the photograph was traced. The area of stained legion(fatty streak legion) was determined with an image analyzer(LEICA, Q-600, Germany) and its proportion(%) to the total arterial area was calculated. The result is shown in Table V. The results were tested by student t-test by using Microsoft excel(version 7.0) program.

ACAT [2] = test: ACAT activity in fed rabbits; assay type: in vivo, rabbit; details: rabbits fed 1% cholesterol plus 1 mg/kg Lovastatin or 0.1% NG5006, 8 weeks
Procedure: as §1
The effect of feeding NG5006 to rabbits on the activities of ACAT was determined using the rabbits bred in Step 1 of Example 14 in accordance with procedure disclosed in step 1 of Example 13.

[3] = tested on: New Zealand White rabbits; test: Abnormal fat-containing liver cells (fatty liver) in cholesterol-fed rabbits; assay type: in vivo, rabbit
Procedure: as §1
In order to evaluate the effects of feeding a high cholesterol diet with NG5006 on liver tissues, the liver specimens taken from the sacrificed rabbit in Step 2 of Example 14 were treated in accordance with the procedure disclosed in Fogt F. and Nanji A., Toxicology and Applied Pharmacology, 136, 87-93, 1996; and Keegan A., et al., Journal of Hepatology, 23, 591-600, 1995, and observed under a microscope to be classified into four grades, i.e., 1+(0-25%), 2+(26-50%), 3+(51-75), 4+(76-100%) based on the proportion of abnormal fat-containing cells around the central vein in the liver acinus. The results were tested by student t-test by using Microsoft excel(version 7.0) program.

HMG-CoA reductase = target: T1, HMG-CoA reductase (Rattus norvegicus, UniProt P51639); test: HMG-CoA reductase activity in liver microsomes of fed rats; assay type: in vivo; details: liver microsomes of rats fed 1% cholesterol plus 0.02% naringenin or 0.036% NG5006, six weeks
T1 construct: microsomes were separated from liver tissues to be used as an enzyme source; from tissue; host or cells: liver microsomes of fed rats
T1 sequence (P51639 1-887): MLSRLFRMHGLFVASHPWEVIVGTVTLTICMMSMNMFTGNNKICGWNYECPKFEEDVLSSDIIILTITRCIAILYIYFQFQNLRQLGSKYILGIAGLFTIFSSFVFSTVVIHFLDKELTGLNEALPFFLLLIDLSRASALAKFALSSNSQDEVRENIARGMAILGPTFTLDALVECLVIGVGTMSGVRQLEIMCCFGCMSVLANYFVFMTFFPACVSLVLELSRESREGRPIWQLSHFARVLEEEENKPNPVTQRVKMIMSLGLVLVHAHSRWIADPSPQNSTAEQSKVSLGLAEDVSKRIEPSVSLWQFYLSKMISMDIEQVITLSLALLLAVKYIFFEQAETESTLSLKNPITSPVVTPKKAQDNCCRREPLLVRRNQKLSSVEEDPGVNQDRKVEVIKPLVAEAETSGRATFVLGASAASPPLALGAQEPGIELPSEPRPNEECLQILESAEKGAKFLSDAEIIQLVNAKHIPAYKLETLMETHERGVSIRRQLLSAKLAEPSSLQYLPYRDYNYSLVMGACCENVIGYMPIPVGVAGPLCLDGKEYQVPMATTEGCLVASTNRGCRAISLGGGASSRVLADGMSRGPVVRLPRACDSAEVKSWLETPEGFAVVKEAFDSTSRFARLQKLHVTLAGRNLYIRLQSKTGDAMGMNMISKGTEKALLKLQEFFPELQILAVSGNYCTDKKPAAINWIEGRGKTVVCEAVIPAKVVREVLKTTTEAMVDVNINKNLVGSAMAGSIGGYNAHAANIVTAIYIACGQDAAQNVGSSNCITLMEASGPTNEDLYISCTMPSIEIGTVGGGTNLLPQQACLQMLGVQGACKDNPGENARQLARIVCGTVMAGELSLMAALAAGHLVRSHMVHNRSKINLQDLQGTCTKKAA
Procedure: (§2) To determine the effect of feeding NG5006 to rats on the activities of ACAT and HMG-CoA reductase, microsomes were separated from liver tissues to be used as an enzyme source.
(§3) 1 g each of the livers taken from each group of rats of Example 12 was homogenized in 5 ml of homogenization medium(0. 1 M KH2PO4, pH 7.4, 0.1 mM EDTA and 10 mM β-mercaptoethanol). The homogenate was centrifuged at 3,000×g for 10 min. at 4° C. and the supernatant thus obtained was centrifuged at 15,000×g for 15 min. at 4° C. to obtain a supernatant. The supernatant was put into an ultracentrifuge tube(Beckman) and centrifuged at 100,000×g for 1 hour at 4° C. to obtain microsomal pellets, which were then suspended in 3 ml of the homogenization medium and centrifuged at 100,000×g for 1 hour at 4° C. The pellets thus obtained were suspended in 1 ml of the homogenization medium. The protein concentration of the resulting suspension was determined by Lowry's method and then adjusted to 4 to 8 mg/ml. The resulting suspension was stored in a deep freezer(Biofreezer, Forma Scientific Inc.).
The activity of HMG-CoA reductase was determined by employing [^14C]HMG-CoA, in accordance with the method of Shapiro et al.(Biochemica et Biophysica Acta, 370, 369-377(1974)) as follows.
The enzyme in the supernatant containing the microsome obtained in (Step 1) was activated at 37° C. for 30 min. Added to a reaction tube were 20 μl of HMG-CoA reductase assay buffer(0.25M KH2PO4(pH 7.0), 8.75 mM EDTA, 25 mM DTT, 0.45 M KCl and 0.25 mg/ml BSA), 5 μl of 50 mM NADPH, 5 μl of [^14C]HMG-CoA(0.05μ Ci/tube, final conc. 120μM), and 10 μl of activated microsomal enzyme(0.03-0.04 mg), and the mixture was incubated at 37° C. for 30 min. […] A region having a Rf value ranging from 0.65 to 0.75 was removed by scraping with a disposable cover slips and assayed for radioactivity with 1450 Microbeta liquid scintillation counter(Wallac Co., Finland). Enzyme activities were calculated as picomoles mevalonic acid synthesized per min. per mg protein(pmoles/min/mg protein).

ACAT [4] = test: ACAT activity in liver microsomes of fed rats; assay type: in vivo, rat; details: liver microsomes of rats fed 1% cholesterol plus 0.02% naringenin or 0.036% NG5006, six weeks
Procedure: as §2, §3
6.67 μl of 1 mg/ml cholesterol solution in acetone was mixed with 6 μl of 10% Triton WR-1339(Sigma Co.) in acetone and then, acetone was removed from the mixture by evaporation under a nitrogen flow. Distilled water was added to the resulting mixture to adjust the concentration of cholesterol to […].
Added to 10 μl of the resulting aqueous cholesterol solution were 10 μl of 1 M KH2PO4(pH 7.4), 5 μl of 0.6 mM bovine serum albumin(BSA), 10 μl of microsome solution obtained in (Step 1) and 55 μl of distilled water(total 90 μl). The mixture was pre-incubated in a water bath at 37° C. for 30 min. […]
200 μl of the resulting supernatant was put in a scintillation bottle and 4 ml of scintillation fluid(Lumac Co.) was added thereto. The mixture was assayed for radioactivity with 1450 Microbeta liquid scintillation counter(Wallac Co., Finland). ACAT activity was calculated as picomoles of cholesteryl oleate synthesized per min. per mg protein(pmoles/min/mg protein).

Sprague-Dawley rats = test: Plasma total cholesterol, HDL-cholesterol and triglyceride levels in rats fed high-cholesterol diet; assay type: in vivo, rat
From the text: (Step 1) Administration of NG5006 to rats
30 four-week-old white Sprague-Dawley rats (Korea Institute of Science and Technology, Korea), each weighing about 90 to 120 g, were evenly divided into three dietary groups by a randomized block design. The rats of the three groups were fed with three different high-cholesterol diets, i.e., AIN-76 laboratory animal diet(ICN Biochemicals, Cleveland, Ohio, U.S.A.) containing 1% cholesterol(Control group), 1% cholesterol plus 0.02% naringenin and 1% cholesterol plus 0.036% NG5006, respectively.
The rats were allowed to feed freely on the specified diet together with water for six weeks, the ingestion amount was recorded daily and the rats were weighed every 7 days, and then the record was analyzed. […] (Step 2) Determination of total cholesterol, HDL-cholesterol and triglyceride contents in blood
The effects of administering naringenin or NG5006 to rats on the plasma cholesterol and triglyceride contents were determined as follows.
Blood samples were taken from the rats of the three dietary groups and total cholesterol level was determined by using Sigma Diagnostic Kit Cat. No. C0534(Sigma Chemical Co., U.S.A.). HDL fractions were separated therefrom by using HDL-cholesterol reagent(Sigma Chemical Co., Cat. No. 352-1) and HDL-cholesterol level was determined by using Sigma Diagnostic Kit Cat. No. C9908(Sigma Chemical Co., U.S.A.). Triglyceride level was determined by using Sigma Diagnostic Kit Cat. No. 336-10(Sigma Chemical Co., U.S.A.).

[5] = 1% cholesterol plus 1 mg/kg Lovastatin or 0.1% NG5006
[6] = plasma, rats on 1% cholesterol diet plus 0.02% naringenin or 0.036% NG5006, six weeks
[7] = rats, 1% cholesterol diet, six weeks

HMG-CoA reductase activity (HMG-CoA reductase) [pmole/min/mg protein]	SMILES	layer on the arterial endothelium (FIGS. 1B, 1C) [1, 5]	formation of fatty streak compared to the control group, in words ([1]; 1% cholesterol plus 1 mg/kg Lovastatin or 0.1% NG5006, 8 weeks)	Fatty Streak lesion (proportion of total arterial area) ([1]; 1% cholesterol plus 1 mg/kg Lovastatin or 0.1% NG5006, 8 weeks, Oil Red O staining) [%]	ACAT activity (ACAT [2]) [pmole/min/mg protein]	% Inhibition on ACAT Activity (ACAT [2]; versus control group) [%]	microscopic features of the livers (FIGS. 2B, 2C) [3, 5]	Proportion of abnormal fat-containing liver cells (grade) ([3]; grades 1+(0-25%), 2+(26-50%), 3+(51-75), 4+(76-100%), 1% cholesterol plus 1 mg/kg Lovastatin or 0.1% NG5006, 8 weeks)	ACAT activity (ACAT [4]) [pmole/min/mg protein]	HDL-C (HDL-cholesterol) (Sprague-Dawley rats; [6]) [mg/dL]	HDL-C/Total-C (Sprague-Dawley rats; [6]) [%]	TG (triglyceride) (Sprague-Dawley rats; [6]) [mg/dL]	Total-C (total cholesterol) (Sprague-Dawley rats; [6]) [mg/dL]	AI: Atherosclerosis Index (AI = (Total-C − HDL-C)/HDL-C) (Sprague-Dawley rats; rats on 1% cholesterol diet plus 0.02% naringenin or 0.036% NG5006, six weeks)	total plasma cholesterol level lower than in the Control group (Sprague-Dawley rats; [7]) [%]	triglyceride level lower than in the control group (Sprague-Dawley rats; [7]) [%]
	CC[C@H](C)C(=O)O[C@H]1C[C@@H](C)C=C2C=C[C@H](C)[C@H](CC[C@@H]3C[C@@H](O)CC(=O)O3)[C@H]21 [Lovastatin ®, Lovastatin, reference compound]	no or very thin layers of macrophage-lipid complex	significantly inhibit the formation of fatty streak	18.0 ± 9.5	246.1 ± 52.5	4.2	many cells containing excessive fat were observed around the central vein	3.3 ± 1.1								
87.7 ± 5.9	O=C1C[C@@H](c2ccc(O)cc2)Oc2cc(O)cc(O)c21 [Naringenin, naringenin, reference compound]								153.3 ± 6.9	35.8 ± 1.5	18.8 ± 0.9	143.7 ± 9.4	190.6 ± 7.6	4.3 ± 0.3	16	6
